Results from patent US10253002B2, “Compounds and methods of treating infections” (Neoculi Pty Ltd., priority 2013, dated 2019).
Values after ≈ are worked out from the molar mass of the structure shown. Read-outs that look alike come from different tables or passages of the source.

Test system: vancomycin-resistant Enterococcus spp. (VRE)
Experiment: Broth microdilution MIC (CLSI), Example 1
Format: cell-based
Description: Cation adjusted Mueller Hinton Broth (CAMHB) was prepared using 100 mL sterile Mueller Hinton broth (pH adjusted). To each 100 mL volume, 125 μL of calcium stock solution (10 mg Ca^2+ per ml) and 43 μL magnesium stock solution (10 mg Mg^2+ per mL) was aseptically added. Sufficient broth is made up for daily use, with unused portions being stored at 4° C. overnight.
Potency was described as 1000 mg/g or 100%. The powder was dissolved in 10 mL DMSO and 1 mL volumes were aliquoted into eppendorf tubes and stored at −80° C.
Serial dilutions were prepared in 96 well plates were set up in a safety cabinet according to methods standard in the art. Briefly: 90 μL of the working antibiotic solution was added to each well in Column 12 of the plate, and mixed well, before 90 μL was transferred to column 11. The solutions were mixed again, and then transferred to the next column as before, continuing the dilutions through to column 3. Mixing the well requires the pick up and expulsion of 90 μL in each well 3-4 times before picking up and transferring the 90 μL to the next well. […] The trays were set up as follows: 2 strains were tested in duplicate in one tray, such that strain 1 was located in rows A to D, strain 2 was located in rows E to H, etc.
Fresh cultures of bacteria were prepared for testing on sheep blood agar (SBA), and overnight incubation at 37° C. as follows; 2-3 colonies of each strain in 7 mL sterile saline, and the OD600 measured as an indication of the density (approx. […] or 0.5 McFarland Standard). The bacterial suspension was adjusted to a final absorbance of 0.08 to 0.100, using saline to achieve correct density, and as the blank. Within 15 minutes of preparation, the adjusted bacterial suspension with sterile saline 1:20 (1 mL into 19 mL sterile saline) to achieve a final bacterial concentration of 4 to 5×10^6 CFU/mL. The bacterial solution was placed into a sterile trough and 10 μL of bacterial solution added into wells 2 through to 12 on each required row (dilution of 1:10, with final concentration of bacteria in wells=5×10^5 CFU/mL). The tray was sealed and incubated at 37° C. for 18-24 h. The purity of bacterial suspension was confirmed by streaking out 50 μL of the 1:20 dilution onto a SBA plate, which was incubated for 37° C. for 18 h and examined. Viable counts were carried out to ensure that the correct concentration of bacteria and been added to the wells. The diluted bacterial solution (4 to 5×10^6 CFU/mL) was diluted 1:10 downwards by adding 100 μL to 900 μL of sterile saline in sterile tubes, and the serial dilutions continued 1:10 for 5 tubes. 100 μL (4-5 drops) of the 4th and 5th dilutions (tube 4=105 and tube 5=10^6 CFU/ml) was plated around in duplicate on pre-dried PCA agar plates and incubated at 37° C. overnight. The following day the number of colonies on the plates was counted and the average count in 100 μL obtained. The study was multiplied by 10 to obtain a viable bacterial count per mL.
Minimum inhibitory concentrations (μg/mL) were determined using the broth microdilution method recommended by the Clinical and Laboratory Standards Institute (CLSI) (Methods for Dilution Antimicrobial Susceptibility Tests for Bacteria That Grow Aerobically; Approved Standard—Seventh Edition. CLSI M7-A7, 2006; Performance Standards for Antimicrobial Disk and Dilution Susceptibility Tests for Bacteria Isolated from Animals; Approved Standard—Second Edition. CLSI M31-A2, 2002; Performance Standards for Antimicrobial Susceptibility Testing; CLSI M2-A9, 2006).
MIC breakpoints were determined by visual assessment and then confirmed using an ELISA plate reader, measuring absorbance levels at 450 nm. Bacterial growth (turbidity) in the wells with antimicrobial was compared with the amount of growth (turbidity) in the growth-control well (containing no antimicrobial).

[1] = Enterococcus isolates of Table 4, Test 2
[2] = Enterococcus, VRE, B09/2087, Test 1, read-out: MIC
[3] = Enterococcus, VRE, Enterococcus 011, Test 1, read-out: MIC
[4] = Enterococcus, VRE, Enterococcus 012, Test 1, read-out: MIC
[5] = Enterococcus, VRE, Enterococcus 012, Test 2, read-out: MIC
[6] = Enterococcus, VRE, Enterococcus 013, Test 1, read-out: MIC
[7] = Enterococcus, VRE, Enterococcus 013, Test 2, read-out: MIC
[8] = Enterococcus, VRE, VRE 001, Test 1, read-out: MIC
[9] = Enterococcus, VRE, VRE 001, Test 2, read-out: MIC
[10] = Enterococcus, VRE, VRE 003, Test 1, read-out: MIC
[11] = Enterococcus, VRE, VRE 003, Test 2, read-out: MIC
[12] = Enterococcus, VRE, VRE 005, Test 1, read-out: MIC
[13] = Enterococcus, VRE, VRE 005, Test 2, read-out: MIC
[14] = Enterococcus, VRE, VRE 006, Test 1, read-out: MIC
[15] = Enterococcus, VRE, VRE 006, Test 2, read-out: MIC

CC1(C)S[C@@H]2[C@H](NC(=O)[C@H](N)c3ccccc3)C(=O)N2[C@H]1C(=O)O [Ampicillin]
MIC range (E. faecalis, 4 isolates): 1 µg/mL (≈ 2.86 µM)
MIC50 (E. faecium, 16 isolates): 1 µg/mL (≈ 2.86 µM)
MIC range (E. faecium, 16 isolates): 1 µg/mL (≈ 2.86 µM)
MIC90 (E. faecium, 16 isolates, read-out: MIC90): 2 µg/mL (≈ 5.72 µM)
MIC (E. faecium, 16 isolates, read-out: MIC mode): 1 µg/mL (≈ 2.86 µM)
MIC (Enterococcus faecalis strain ATCC 29212, read-out: MIC of control strain (internal quality control)): 1 µg/mL
MIC90 [1]: 2 µg/mL (≈ 5.72 µM)
MIC (Enterococcus, ATCC 29212 / VRE, Enterococcus spp. ATCC 29212, Test 1, read-out: MIC): 1 µg/mL (≈ 2.86 µM)
MIC (Enterococcus, ATCC 29212 / VRE, Enterococcus spp. ATCC 29212, Test 2, read-out: MIC): 1 µg/mL (≈ 2.86 µM)
MIC (Enterococcus, VRE, 20 isolates, read-out: MIC mode): 1 µg/mL (≈ 2.86 µM)
MIC (Enterococcus, VRE, B09/2021, Test 1, read-out: MIC): 1 µg/mL (≈ 2.86 µM)
MIC (Enterococcus, VRE, B09/2021, Test 2, read-out: MIC): 1 µg/mL (≈ 2.86 µM)
MIC (Enterococcus, VRE, B09/2032, Test 1, read-out: MIC): 2 µg/mL (≈ 5.72 µM)
MIC (Enterococcus, VRE, B09/2032, Test 2, read-out: MIC): 2 µg/mL (≈ 5.72 µM)
MIC [2]: 2 µg/mL (≈ 5.72 µM)
MIC (Enterococcus, VRE, B09/2087, Test 2, read-out: MIC): 1 µg/mL (≈ 2.86 µM)
MIC (Enterococcus, VRE, B09/2088, Test 1, read-out: MIC): 1 µg/mL (≈ 2.86 µM)
MIC (Enterococcus, VRE, B09/2088, Test 2, read-out: MIC): 1 µg/mL (≈ 2.86 µM)
MIC (Enterococcus, VRE, B09/2121, Test 1, read-out: MIC): 1 µg/mL (≈ 2.86 µM)
MIC (Enterococcus, VRE, B09/2121, Test 2, read-out: MIC): 1 µg/mL (≈ 2.86 µM)
MIC (Enterococcus, VRE, B09/2192, Test 1, read-out: MIC): 1 µg/mL (≈ 2.86 µM)
MIC (Enterococcus, VRE, B09/2192, Test 2, read-out: MIC): 1 µg/mL (≈ 2.86 µM)
MIC (Enterococcus, VRE, Enterococcus 008, Test 1, read-out: MIC): 1 µg/mL (≈ 2.86 µM)
MIC (Enterococcus, VRE, Enterococcus 008, Test 2, read-out: MIC): 1 µg/mL (≈ 2.86 µM)
MIC (Enterococcus, VRE, Enterococcus 009, Test 1, read-out: MIC): 1 µg/mL (≈ 2.86 µM)
MIC (Enterococcus, VRE, Enterococcus 009, Test 2, read-out: MIC): 1 µg/mL (≈ 2.86 µM)
MIC (Enterococcus, VRE, Enterococcus 010, Test 1, read-out: MIC): 2 µg/mL (≈ 5.72 µM)
MIC (Enterococcus, VRE, Enterococcus 010, Test 2, read-out: MIC): 2 µg/mL (≈ 5.72 µM)
MIC [3]: 1 µg/mL (≈ 2.86 µM)
MIC (Enterococcus, VRE, Enterococcus 011, Test 2, read-out: MIC): 1 µg/mL (≈ 2.86 µM)
MIC [4]: 0.5 µg/mL (≈ 1.43 µM)
MIC [5]: 0.5 µg/mL (≈ 1.43 µM)
MIC [6]: 2 µg/mL (≈ 5.72 µM)
MIC [7]: 2 µg/mL (≈ 5.72 µM)
MIC (Enterococcus, VRE, Enterococcus 014, Test 1, read-out: MIC): 1 µg/mL (≈ 2.86 µM)
MIC (Enterococcus, VRE, Enterococcus 014, Test 2, read-out: MIC): 1 µg/mL (≈ 2.86 µM)
MIC [8]: 0.5 µg/mL (≈ 1.43 µM)
MIC [9]: 0.5 µg/mL (≈ 1.43 µM)
MIC (Enterococcus, VRE, VRE 002, Test 1, read-out: MIC): 1 µg/mL (≈ 2.86 µM)
MIC (Enterococcus, VRE, VRE 002, Test 2, read-out: MIC): 1 µg/mL (≈ 2.86 µM)
MIC [10]: 0.5 µg/mL (≈ 1.43 µM)
MIC [11]: 0.5 µg/mL (≈ 1.43 µM)
MIC (Enterococcus, VRE, VRE 004, Test 1, read-out: MIC): 1 µg/mL (≈ 2.86 µM)
MIC (Enterococcus, VRE, VRE 004, Test 2, read-out: MIC): 1 µg/mL (≈ 2.86 µM)
MIC [12]: 1 µg/mL (≈ 2.86 µM)
MIC [13]: 1 µg/mL (≈ 2.86 µM)
MIC [14]: 1 µg/mL (≈ 2.86 µM)
MIC [15]: 1 µg/mL (≈ 2.86 µM)
MIC (Enterococcus, VRE, VRE 007, Test 1, read-out: MIC): 1 µg/mL (≈ 2.86 µM)
MIC (Enterococcus, VRE, VRE 007, Test 2, read-out: MIC): 1 µg/mL (≈ 2.86 µM)
MIC50 (Enterococcus, VRE, 20 isolates): 1 µg/mL (≈ 2.86 µM)
MIC90 (VRE, 20 isolates): 2 µg/mL (≈ 5.72 µM)
MIC90 (VRE, Enterococcus isolates of Table 4, Test 1, read-out: MIC90): 2 µg/mL (≈ 5.72 µM)

N=C(N/N=C/c1ccc(Cl)cc1)N/N=C/c1ccc(Cl)cc1 [NCL812, 1,3-bis[(E)-(4-chlorophenyl)methyleneamino]guanidine]
MIC range (E. faecalis, 4 isolates): 2 to 4 µg/mL
MIC range (E. faecium, 16 isolates): 2 to 4 µg/mL
MIC90 (Enterococcus isolates of Table 4, Test 1): 4 µg/mL (≈ 12 µM)
MIC90 [1]: 4 µg/mL (≈ 12 µM)
MIC [2]: 2 µg/mL (≈ 5.98 µM)
MIC [3]: 2 µg/mL (≈ 5.98 µM)
MIC [4]: 2 µg/mL (≈ 5.98 µM)
MIC [5]: 2 µg/mL (≈ 5.98 µM)
MIC [6]: 2 µg/mL (≈ 5.98 µM)
MIC [7]: 2 µg/mL (≈ 5.98 µM)
MIC [8]: 2 µg/mL (≈ 5.98 µM)
MIC [9]: 2 µg/mL (≈ 5.98 µM)
MIC [10]: 2 µg/mL (≈ 5.98 µM)
MIC [11]: 2 µg/mL (≈ 5.98 µM)
MIC [12]: 2 µg/mL (≈ 5.98 µM)
MIC [13]: 2 µg/mL (≈ 5.98 µM)
MIC [14]: 2 µg/mL (≈ 5.98 µM)
MIC [15]: 2 µg/mL (≈ 5.98 µM)
